Results taken from US4912102A, “Analogs of naphtho[1,2-β] [1,4] thiazepin-4(5H)-one” (Hoffmann-La Roche Inc., priority 1988, dated 1990).
Where a name gives a salt, the structure may show the parent alone. Read-outs that look alike come from different tables or passages of the source.

How the values were obtained:
[1] = tested on: Guinea Pig Ileal Longitudinal Smooth Muscle; experiment: Inhibition of K+-induced tonic contraction, guinea pig ileum assay (calcium channel blocking activity); format: cell-based; conditions: for IC50: tonic contraction, 80 mM K+ challenge, 37° C., read-out: Inhibition of K^+-Induced Contractile Responses, IC50, Tonic; for activity in the guinea pig ileum test: doses up to 10^-4 M
Description: Male guinea-pigs weighing from 300-400 grams were stunned and bled. The abdomen was opened and 10-15 cm of terminal ileum was carefully removed and cleaned and placed in Tyrode's Solution of the following composition: NaCl (8 g/l), KCl (0.2 g/l), MgCl2 (0.1 g/l), CaCl2 (0.2 g/l). NaH2 PO4 (0.05 g/l), NaHCO3 (1.0 g/l) and Glucose (1 g/l). The solution was maintained at 37° C. and gassed with 95% O2 and 5% CO2. Portions of the ileum were placed over a glass rod, a shallow incision was made the length of the mesenteric attachment just severing the outer-longitudinal muscle layer. The longitudinal muscle was separated from the underlying circular muscle by gentle dissection (Rang. H. P. Annals. of New York Academy of Science, vol. 144, page 756, 1964). The tissue was fixed at one end to a tissue holder, the other end was connected by a thread to a force transducer and suspended in a muscle bath containing Tyrode's Solution maintained at 37° C. and gassed with 95% O2 and 5% CO2. An initial tension of 500 mg was applied and the tissue allowed to equilibrate for 60 minutes prior to the start of the study. During this period the tissue was washed every 16 minutes. Each preparation, at 16 minute intervals, was challenged with KCl sufficient to yield a bath K+ concentration of 80 mMK for 2 minutes, then washed with fresh solution. The 16 minute interval between K+ challenges was maintained throughout the study. Upon stabilization of the responses to the K+ challenge the test compound (potential calcium entry antagonist) was introduced into the bath 2 minutes prior to and during the 2 minute exposure to K+ after which the bath was cleared and washed with fresh solution. Logarithmically increasing doses (up to 10^-4 M) of the potential antagonist were administered as the study progressed. The measure of a compound's ability to inhibit the tonic contraction of muscle is a measure of its activity as a calcium channel blocking agent.

[2] = tested on: lipid peroxidation in liposomes prepared from native rat cardiac lipid; experiment: Anti-peroxidative activity (superoxide-dependent, iron-promoted lipid peroxidation, MDA-like products); format: biochemical; conditions: for Anti-Peroxidative Activity % Inhibition (1 μM) / IC50: 60 minutes at 37° C.
Description: An in vitro assay system to measure antiperoxidative activity is done in two steps: (A) lipid peroxidation is triggered by a free-radical generating system that replicates the superoxide-dependent, iron-promoted Haber-Weiss reaction, and (B) peroxidation is measured spectrophotometrically as the production of malondialdehyde-like products (MDA). Liposomes prepared from the native rat cardiac lipid are incubated with hypoxanthine, xanthine oxidase, and Fe· ADP chelate, and a test substance or buffer in glass tubes for 60 minutes at 37° C. The amount of peroxidation is determined by adding a thiobarbituric acid-reaction mixture to the tubes, heating to 80° C. for 30 minutes and reading the pink adduct at 530 nm.

| IC50 ([1]; Cavia porcellus) | IC50 [2] | SMILES | activity in the anti-peroxidative test [2] | activity in the guinea pig ileum test [1] | other results |
| --- | --- | --- | --- | --- | --- |
| 16 µM |  | COc1ccc([C@@H]2Sc3c(ccc4ccccc34)N(CCN(C)C)C(=O)[C@@H]2OC(=O)c2cccnc2)cc1 (relative stereo) [Compound M, (±)-cis-2,3-dihydro-2-(4-methoxyphenyl)-5-[2-(dimethylamino)ethyl]-3-[(3-pyridinylcarbonyl)oxy]naphtho[1,2-b][1,4]thiazepin-4(5H)-one dihydrochloride (4:5) hydrate] |  |  |  |
|  | < 1000 nM | COc1ccc([C@@H]2Sc3c(ccc4ccccc34)N(CCN(C)C)C(=O)[C@@H]2OC(=O)C2(C)CCc3c(cc(C(C)C)c(O)c3C(C)C)O2)cc1 (relative stereo) [Example 15 isomer "A", [(±)-cis-3(2alpha or 2beta)]-2,3-dihydro-3-[[[3,4-dihydro-6-hydroxy-2-methyl-5,7-bis(1-methylethyl)-2H-1-benzopyran-2-yl]carbonyl]oxy]-5-[2-(dimethylamino)ethyl]-2-(4-methoxyphenyl)naphtho[1,2-b][1,4]thiazepin-4(5H)-one] | found to be active |  | Anti-Peroxidative Activity % Inhibition (1 μM) ([2]; listed as drawing 26, 1 µM): 62.6% |
|  | < 1000 nM | COc1ccc([C@@H]2Sc3c(ccc4ccccc34)N(CCN(C)C)C(=O)[C@@H]2OC(=O)C2(C)CCc3c(cc(C(C)C)c(O)c3C(C)C)O2)cc1 (relative stereo) [Example 15 isomer "B", [(±)-cis-3(2alpha or 2beta)]-2,3-dihydro-3-[[[3,4-dihydro-6-hydroxy-2-methyl-5,7-bis(1-methylethyl)-2H-1-benzopyran-2-yl]carbonyl]oxy]-5-[2-(dimethylamino)ethyl]-2-(4-methoxyphenyl)naphtho[1,2-b][1,4]thiazepin-4(5H)-one] |  |  | Anti-Peroxidative Activity % Inhibition (1 μM) ([2]; listed as drawing 27, 1 µM): 66.7% |
|  | < 1000 nM | COc1ccc([C@@H]2Sc3c(ccc4ccccc34)N(CCN(C)C)C(=O)[C@@H]2OC(=O)C2(C)CCc3c(cc(C(C)C)c(O)c3C(C)C)O2)cc1 (single isomer, unassigned; (+)) [Example 17 isomer "A", [(+)-Cis-3(2α or 2β)]-2,3-dihydro-3-[[[3,4-dihydro-6-hydroxy-2-methyl-5,7-bis(1-methylethyl)-2H-1-benzopyran-2-yl]carbonyl]oxy]-5-[2-(dimethylamino)ethyl]-2-(4-methoxyphenyl)naphtho[1,2-b][1,4]thiazepin-4(5H)-one (E)-2-butenedioate monohydrate] | found to be active | not found to be active | Anti-Peroxidative Activity % Inhibition (1 μM) ([2]; monohydrate): 58.5% |
|  | < 1000 nM | COc1ccc([C@@H]2Sc3c(ccc4ccccc34)N(CCN(C)C)C(=O)[C@@H]2OC(=O)C2(C)CCc3c(cc(C(C)C)c(O)c3C(C)C)O2)cc1 (single isomer, unassigned; (+)) [Example 17 isomer "B", [(+)-cis-3(2alpha, or 2beta)]-2,3-dihydro-3-[[[3,4-dihydro-6-hydroxy-2-methyl-5,7-bis(1-methylethyl)-2H-1-benzopyran-2-yl]carbonyl]oxy]-5-[2-(dimethylamino)ethyl]-2-(4-methoxyphenyl)naphtho[1,2-b][1,4]thiazepin-4(5H)-one] |  | not found to be active | Anti-Peroxidative Activity % Inhibition (1 μM) [2]: 59.6% |

Second part, the compound before the results:

| SMILES | IC50 ([1]; Cavia porcellus) | IC50 [2] | activity in the anti-peroxidative test [2] | activity in the guinea pig ileum test [1] | other results |
| --- | --- | --- | --- | --- | --- |
| COc1ccc([C@@H]2Sc3c(ccc4ccccc34)N(CCN(C)C)C(=O)[C@@H]2OC(=O)c2ccccc2O)cc1 (racemic) [Compound F, (±)-cis-2,3-dihydro-3-[(2-hydroxybenzoyl)oxy]-5-[2-(dimethylamino)ethyl]-2-(4-methoxyphenyl)naphtho[1,2-b][1,4]thiazepin-4(5H)-one hydrochloride] | 45 µM |  |  |  |  |
| COc1ccc([C@@H]2Sc3c(ccc4ccccc34)N(CCN(C)C)C(=O)[C@@H]2OC(=O)c2cc(OC)c(OC)c(OC)c2)cc1 (racemic) [Compound J, (±)-cis-2,3-dihydro-2-(4-methoxyphenyl)-3-[(3,4,5-trimethoxybenzoyl)oxy]-5-[2-(dimethylamino)ethyl]naphtho [1,2-b][1,4]thiazepin-4(5H)-one hydrochloride] | 70 µM |  |  |  |  |
| COc1ccc([C@@H]2Sc3c(ccc4ccccc34)N(CCN(C)C)C(=O)[C@@H]2OC(=O)c2cc(C(C)(C)C)c(O)c(C(C)(C)C)c2)cc1 (racemic) [Example 14, (±)-cis-2,3-Dihydro-3-[[4-hydroxy-3,5-bis(1,1-dimethylethyl)benzoyl]oxy]-2-(4-methoxyphenyl)-5-[2-(dimethylamino)ethyl]naphtho[1,2-b][1,4]thiazepin-4(5H)-one] |  |  | active | not found to be active |  |
| CNCCN1C(=O)[C@H](O)[C@H](c2ccc(OC)cc2)Sc2c1ccc1ccccc21 (relative stereo) [Compound C] |  |  |  |  | IC50 [1]: 7 µM |
| CNCCN1C(=O)[C@H](OC(C)=O)[C@H](c2ccc(OC)cc2)Sc2c1ccc1ccccc21 (relative stereo) [Compound D] |  |  |  |  | IC50 [1]: 3.5 µM |
| COc1ccc([C@@H]2Sc3c(ccc4ccccc34)N(CCN(C)C)C(=O)[C@@H]2OC(=O)c2ccccc2OC(C)=O)cc1 (relative stereo) [Compound E, (±)-cis-3-[[(2-acetyloxy)benzoyl]oxy]-2,3-dihydro-5-[2-(dimethylamino)ethyl]-2-(4-methoxyphenyl)naphtho[1,2-b][1,4]thiazepin-4(5H)-one hydrochloride] | 13 µM |  |  |  |  |
| COc1ccc([C@@H]2Sc3c(ccc4ccccc34)N(CCN(C)C)C(=O)[C@@H]2OC(=O)c2ccc(OC)c(OC)c2)cc1 (relative stereo) [Example 4, (±)-cis-3-[(3,4-Dimethoxybenzoyl)oxy]-2,3-dihydro-5-[2-(dimethylamino)ethyl]-2-(4-methoxyphenyl)naphtho][1,2-b][1,4]thiazepin-4(5H)-one] |  |  | active | not found to be active |  |
| COc1ccc([C@@H]2Sc3c(ccc4ccccc34)N(CCN(C)C)C(=O)[C@@H]2OC(=O)C2(C)CCc3c(C)c(O)c(C)c(C)c3O2)cc1 (relative stereo) [Example 18, [(+)-cis-3(2alpha and 2beta)1-2,3-Dihydro-3-[[(3,4-dihydro-6-hydroxy-2,5,7,8-tetramethyl-2H-1-benzopyran-2-yl)carbonyl]oxy]-2-(4-methoxyphenyl)-5-[2-(dimethylamino)ethyl]naphtho[1,2-b][1,4]thiazepin-4(5H)-one] |  |  | active | not found to be active |  |
